Results: ChEMBL document CHEMBL1201861, “Genomics of Drug Sensitity in Cancer screening data, Wellcome Trust Sanger Institute”

Experiments:
Assay in all cases: cells
Type in all cases: functional, cell-based, Homo sapiens
[1] = system: COLO-800; conditions: Homo sapiens, COLO-800;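 further: growth inhibition of COLO-800 cells, read out with a cell viability assay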
Description: SANGER: Inhibition of human COLO-800 cell growth in a cell viability assay.

[2] = system: COLO-829; conditions: Homo sapiens, COLO-829
Description: SANGER: Inhibition of human COLO-829 cell growth in a cell viability assay.

[3] = system: CTB-1; conditions: Homo sapiens, CTB-1
Description: SANGER: Inhibition of human CTB-1 cell growth in a cell viability assay.

[4] = system: DEL; conditions: Homo sapiens, DEL;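 further: growth inhibition of the human DEL cell line, read out with a cell viability assay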
Description: SANGER: Inhibition of human DEL cell growth in a cell viability assay.

[5] = system: DMS-79; conditions: Homo sapiens, DMS-79;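 further: growth inhibition measured with a cell viability assay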
Description: SANGER: Inhibition of human DMS-79 cell growth in a cell viability assay.

[6] = system: EC-GI-10; conditions: Homo sapiens, EC-GI-10
Description: SANGER: Inhibition of human EC-GI-10 cell growth in a cell viability assay.

[7] = system: ES1; conditions: Homo sapiens, ES1;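 further: growth inhibition of ES1 cells, read out with a cell viability assay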
Description: SANGER: Inhibition of human ES1 cell growth in a cell viability assay.

[8] = system: EW-16; conditions: Homo sapiens, EW-16;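 further: growth inhibition of human EW-16 cells, read out as cell viability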
Description: SANGER: Inhibition of human EW-16 cell growth in a cell viability assay.

[9] = system: GAK; conditions: Homo sapiens, GAK;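 further: cell growth inhibition read out by a cell viability assay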
Description: SANGER: Inhibition of human GAK cell growth in a cell viability assay.

[10] = system: GT3TKB; conditions: Homo sapiens, GT3TKB;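 further: growth inhibition of the cell line, read out with a cell viability assay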
Description: SANGER: Inhibition of human GT3TKB cell growth in a cell viability assay.

[11] = system: HEL; conditions: Homo sapiens, HEL;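 further: growth inhibition of HEL cells, read out with a cell viability assay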
Description: SANGER: Inhibition of human HEL cell growth in a cell viability assay.

[12] = system: HL-60; conditions: Homo sapiens, HL-60;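 further: growth inhibition of human HL-60 cells, read out with a cell viability assay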
Description: SANGER: Inhibition of human HL-60 cell growth in a cell viability assay.

[13] = system: JAR; conditions: Homo sapiens, JAR;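 further: growth inhibition of human JAR cells determined with a cell viability assay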
Description: SANGER: Inhibition of human JAR cell growth in a cell viability assay.

[14] = system: K562; conditions: Homo sapiens, K562
Description: SANGER: Inhibition of human K-562 cell growth in a cell viability assay.

[15] = system: KARPAS-45; conditions: Homo sapiens, KARPAS-45;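 further: inhibition of cell line growth, read out through a viability assay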
Description: SANGER: Inhibition of human KARPAS-45 cell growth in a cell viability assay.

[16] = system: KE-37; conditions: Homo sapiens, KE-37;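 further: growth inhibition of KE-37 cells, read out with a cell viability assay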
Description: SANGER: Inhibition of human KE-37 cell growth in a cell viability assay.

[17] = system: KU812 cell line; conditions: Homo sapiens, KU812;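 further: growth inhibition of KU812 cells, read out with a cell viability assay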
Description: SANGER: Inhibition of human KU812 cell growth in a cell viability assay.

[18] = system: LAN-6; conditions: Homo sapiens, LAN-6;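 further: growth inhibition of LAN-6 cells, determined with a cell viability assay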
Description: SANGER: Inhibition of human LAN-6 cell growth in a cell viability assay.

[19] = system: LB373-MEL-D; conditions: Homo sapiens, LB373-MEL-D;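 further: growth inhibition of the cell line, read out in a cell viability assay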
Description: SANGER: Inhibition of human LB373-MEL-D cell growth in a cell viability assay.

[20] = system: LB996-RCC; conditions: Homo sapiens, LB996-RCC
Description: SANGER: Inhibition of human LB996-RCC cell growth in a cell viability assay.

[21] = system: LC-2-ad; conditions: Homo sapiens, LC-2-ad;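 further: growth inhibition of human LC-2-ad cells, read out with a cell viability assay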
Description: SANGER: Inhibition of human LC-2-ad cell growth in a cell viability assay.

[22] = system: LNCaP-Clone-FGC; conditions: Homo sapiens, LNCaP-Clone-FGC
Description: SANGER: Inhibition of human LNCaP-Clone-FGC cell growth in a cell viability assay.

[23] = system: LS-513; conditions: Homo sapiens, LS-513
Description: SANGER: Inhibition of human LS-513 cell growth in a cell viability assay.

[24] = system: LU-134-A; conditions: Homo sapiens, LU-134-A
Description: SANGER: Inhibition of human LU-134-A cell growth in a cell viability assay.

[25] = system: NCI-H209; conditions: Homo sapiens, NCI-H209;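 further: growth inhibition of human NCI-H209 cells, measured by a cell viability assay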
Description: SANGER: Inhibition of human NCI-H209 cell growth in a cell viability assay.

[26] = system: NCI-H226; conditions: Homo sapiens, NCI-H226;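 further: cell viability read-out used to gauge growth inhibition of the cells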
Description: SANGER: Inhibition of human NCI-H226 cell growth in a cell viability assay.

[27] = system: NCI-H720; conditions: Homo sapiens, NCI-H720;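 further: growth inhibition of human NCI-H720 cells determined by a cell viability assay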
Description: SANGER: Inhibition of human NCI-H720 cell growth in a cell viability assay.

[28] = system: NH-12; conditions: Homo sapiens, NH-12;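 further: growth inhibition of NH-12 cells, read out with a cell viability assay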
Description: SANGER: Inhibition of human NH-12 cell growth in a cell viability assay.

[29] = system: NOS-1; conditions: Homo sapiens, NOS-1;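 further: growth inhibition of the human NOS-1 cell line, read out with a cell viability assay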
Description: SANGER: Inhibition of human NOS-1 cell growth in a cell viability assay.

[30] = system: NTERA-2-cl-D1; conditions: Homo sapiens, NTERA-2-cl-D1;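 further: inhibition of cell growth, measured with a cell viability assay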
Description: SANGER: Inhibition of human NTERA-S-cl-D1 cell growth in a cell viability assay.

[31] = system: P30-OHK; conditions: Homo sapiens, P30-OHK;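 further: growth inhibition of the P30-OHK cell line, read out with a cell viability assay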
Description: SANGER: Inhibition of human P30-OHK cell growth in a cell viability assay.

[32] = system: PSN1; conditions: Homo sapiens, PSN1;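 further: suppression of growth of human PSN1 cells, read out by a cell viability assay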
Description: SANGER: Inhibition of human PSN1 cell growth in a cell viability assay.

[33] = system: QIMR-WIL; conditions: Homo sapiens, QIMR-WIL;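 further: growth inhibition of QIMR-WIL cells, read out with a cell viability assay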
Description: SANGER: Inhibition of human QIMR-WIL cell growth in a cell viability assay.

[34] = system: RH-1; conditions: Homo sapiens, RH-1;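 further: growth inhibition of human RH-1 cells, read out with a cell viability assay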
Description: SANGER: Inhibition of human RH-1 cell growth in a cell viability assay.

[35] = system: RPMI-8866; conditions: Homo sapiens, RPMI-8866
Description: SANGER: Inhibition of human RPMI-8866 cell growth in a cell viability assay.

[36] = system: SF-126; conditions: Homo sapiens, SF-126;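 further: growth inhibition of human SF126 cells, read out with a cell viability assay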
Description: SANGER: Inhibition of human SF126 cell growth in a cell viability assay.

[37] = system: SF-539; conditions: Homo sapiens, SF-539;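 further: Read-out is a cell viability assay, with IC50 reflecting inhibition of cell growth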
Description: SANGER: Inhibition of human SF539 cell growth in a cell viability assay.

[38] = system: SK-LMS-1; conditions: Homo sapiens, SK-LMS-1;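 further: growth inhibition of human SK-LMS-1 cells, read out with a cell viability assay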
Description: SANGER: Inhibition of human SK-LMS-1 cell growth in a cell viability assay.

[39] = system: SW872; conditions: Homo sapiens, SW872;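 further: growth inhibition of SW872 cells, read out by a viability assay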
Description: SANGER: Inhibition of human SW872 cell growth in a cell viability assay.

[40] = system: A388; conditions: Homo sapiens, A388;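 further: growth inhibition of human A388 cells, read out with a cell viability assay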
Description: SANGER: Inhibition of human A388 cell growth in a cell viability assay.

[41] = system: A498; conditions: Homo sapiens, A498;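 further: growth inhibition of human A498 cells, read out with a cell viability assay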
Description: SANGER: Inhibition of human A498 cell growth in a cell viability assay.

[42] = system: ALL-PO; conditions: Homo sapiens, ALL-PO;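 further: growth inhibition of ALL-PO cells, read out by a cell viability assay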
Description: SANGER: Inhibition of human ALL-PO cell growth in a cell viability assay.

[43] = system: ATN-1; conditions: Homo sapiens, ATN-1;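 further: growth inhibition of human ATN-1 cells, read out with a cell viability assay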
Description: SANGER: Inhibition of human ATN-1 cell growth in a cell viability assay.

[44] = system: TE-10; conditions: Homo sapiens, TE-10;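 further: growth inhibition of TE-10 cells, measured by a cell viability assay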
Description: SANGER: Inhibition of human TE-10 cell growth in a cell viability assay.

[45] = system: TE-5; conditions: Homo sapiens, TE-5;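 further: inhibition of cell growth, read out by a cell viability assay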
Description: SANGER: Inhibition of human TE-5 cell growth in a cell viability assay.

[46] = system: TE-8; conditions: Homo sapiens, TE-8;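 further: growth inhibition of TE-8 cells, measured with a cell viability readout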
Description: SANGER: Inhibition of human TE-8 cell growth in a cell viability assay.

[47] = system: TGBC1TKB; conditions: Homo sapiens, TGBC1TKB;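 further: growth inhibition of TGBC1TKB cells, read out by a cell viability assay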
Description: SANGER: Inhibition of human TGBC1TKB cell growth in a cell viability assay.

[48] = system: CCRF-CEM; conditions: Homo sapiens, CCRF-CEM;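 further: inhibition of CCRF-CEM cell growth, measured by a cell viability assay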
Description: SANGER: Inhibition of human CCRF-CEM cell growth in a cell viability assay.

[49] = system: COLO-320-HSR; conditions: Homo sapiens, COLO-320-HSR;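 further: growth inhibition of COLO-320-HSR cells, determined with a cell viability assay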
Description: SANGER: Inhibition of human COLO-320-HSR cell growth in a cell viability assay.

Nc1ccn([C@@H]2O[C@H](CO)[C@@H](O)C2(F)F)c(=O)n1 [GEMCITABINE]
IC50 [1]: 40.6 nM | IC50 [2]: > 1020 nM | IC50 [3]: 53.4 nM | IC50 [4]: < 4 nM | IC50 [5]: > 1020 nM | IC50 [6]: > 1020 nM | IC50 [7]: < 4 nM | IC50 [8]: < 4 nM | IC50 [9]: 373 nM | IC50 [10]: 42.7 nM | IC50 [11]: 1.79 nM | IC50 [12]: 15.7 nM | IC50 [13]: > 1020 nM | IC50 [14]: 333 nM | IC50 [15]: > 1020 nM | IC50 [16]: < 4 nM | IC50 [17]: 1.91 nM | IC50 [18]: > 1020 nM | IC50 [19]: > 1020 nM | IC50 [20]: 65.1 nM | IC50 [21]: < 4 nM | IC50 [22]: > 1020 nM | IC50 [23]: 888 nM | IC50 [24]: 40 nM | IC50 [25]: 52.1 nM | IC50 [26]: 317 nM | IC50 [27]: > 1020 nM | IC50 [28]: 25.5 nM | IC50 [29]: 32.4 nM | IC50 [30]: 1.64 nM | IC50 [31]: 1.46 nM | IC50 [32]: < 4 nM | IC50 [33]: < 4 nM | IC50 [34]: < 4 nM | IC50 [35]: 95.2 nM | IC50 [36]: 7.05 nM | IC50 [37]: 1.02 nM | IC50 [38]: < 4 nM | IC50 [39]: < 4 nM | IC50 [40]: 1.36 nM | IC50 [41]: > 1020 nM | IC50 [42]: < 4 nM | IC50 [43]: < 4 nM | IC50 [44]: 16.2 nM | IC50 [45]: < 4 nM | IC50 [46]: 8 nM | IC50 [47]: > 1020 nM | IC50 [48]: 18.8 nM | IC50 [49]: 224 nM

COc1cc2ncn(-c3cc(OCc4ccccc4S(C)(=O)=O)c(C#N)s3)c2cc1OC [GSK-319347A]
IC50 [1]: > 5000 nM | IC50 [2]: > 5000 nM | IC50 [3]: > 5000 nM | IC50 [4]: > 5000 nM | IC50 [5]: > 5000 nM | IC50 [6]: > 5000 nM | IC50 [7]: > 5000 nM | IC50 [8]: > 5000 nM | IC50 [9]: > 5000 nM | IC50 [10]: > 5000 nM | IC50 [11]: > 5000 nM | IC50 [12]: > 5000 nM | IC50 [13]: > 5000 nM | IC50 [14]: > 5000 nM | IC50 [15]: > 5000 nM | IC50 [16]: > 5000 nM | IC50 [17]: > 5000 nM | IC50 [18]: > 5000 nM | IC50 [19]: > 5000 nM | IC50 [20]: > 5000 nM | IC50 [21]: > 5000 nM | IC50 [22]: > 5000 nM | IC50 [23]: > 5000 nM | IC50 [24]: > 5000 nM | IC50 [25]: > 5000 nM | IC50 [26]: > 5000 nM | IC50 [27]: > 5000 nM | IC50 [28]: > 5000 nM | IC50 [29]: > 5000 nM | IC50 [30]: > 5000 nM | IC50 [31]: > 5000 nM | IC50 [32]: > 5000 nM | IC50 [33]: > 5000 nM | IC50 [34]: > 5000 nM | IC50 [35]: > 5000 nM | IC50 [36]: > 5000 nM | IC50 [37]: > 5000 nM | IC50 [38]: > 5000 nM | IC50 [39]: > 5000 nM | IC50 [40]: > 5000 nM | IC50 [41]: > 5000 nM | IC50 [42]: > 5000 nM | IC50 [43]: > 5000 nM | IC50 [44]: > 5000 nM | IC50 [45]: > 5000 nM | IC50 [46]: > 5000 nM | IC50 [47]: > 5000 nM | IC50 [48]: > 5000 nM | IC50 [49]: > 5000 nM
